Measured values taken from PubChem BioAssay AID1963977 (Molecular Pharmacology Branch, DTP, NCI, 2024).

Test system: 624824-186-R-J3-PDC multicell spheroids, viability
Assay: Anticancer human tumor 624824-186-R-J3-PDC patient-derived colon adenocarcinoma cell line growth inhibition [PI3K]
Settings: for IC50: curve of first compound; for viability, T/C: stronger effect = lower value
How it was run: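 High-throughput combination screen: PI3K inhibitors crossed with targeted small molecules on complex spheroids of tumor cells, HUVEC and MSCs at 37 degrees C, 5% CO2. Top concentration was at or near clinical Cmax (otherwise 10 microM), with half-log decrements.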

[1] = second compound 0.0316 µM, first compound 0.0316 µM
[2] = second compound 0.0316 µM, first compound 0.1 µM
[3] = second compound 0.0316 µM, first compound 0.316 µM
[4] = second compound 0.0316 µM, first compound 1 µM
[5] = second compound 0.0316 µM, first compound 3.16 µM
[6] = second compound 0.0316 µM, first compound 10 µM
[7] = second compound 0.1 µM, first compound 0.0316 µM
[8] = second compound 0.1 µM, first compound 0.1 µM
[9] = second compound 0.1 µM, first compound 0.316 µM
[10] = second compound 0.1 µM, first compound 1 µM
[11] = second compound 0.1 µM, first compound 3.16 µM
[12] = second compound 0.1 µM, first compound 10 µM
[13] = second compound 0.316 µM, first compound 0.0316 µM
[14] = second compound 0.316 µM, first compound 0.1 µM
[15] = second compound 0.316 µM, first compound 0.316 µM
[16] = second compound 0.316 µM, first compound 1 µM
[17] = second compound 0.316 µM, first compound 3.16 µM
[18] = second compound 0.316 µM, first compound 10 µM
[19] = second compound 1 µM, first compound 0.0316 µM
[20] = second compound 1 µM, first compound 0.1 µM
[21] = second compound 1 µM, first compound 0.316 µM
[22] = second compound 1 µM, first compound 1 µM
[23] = second compound 1 µM, first compound 3.16 µM
[24] = second compound 1 µM, first compound 10 µM
[25] = second compound 3.16 µM, first compound 0.0316 µM
[26] = second compound 3.16 µM, first compound 0.1 µM
[27] = second compound 3.16 µM, first compound 0.316 µM
[28] = second compound 3.16 µM, first compound 1 µM
[29] = second compound 3.16 µM, first compound 3.16 µM
[30] = second compound 3.16 µM, first compound 10 µM
[31] = second compound 10 µM, first compound 0.0316 µM
[32] = second compound 10 µM, first compound 0.1 µM
[33] = second compound 10 µM, first compound 0.316 µM
[34] = second compound 10 µM, first compound 1 µM
[35] = second compound 10 µM, first compound 3.16 µM
[36] = second compound 10 µM, first compound 10 µM
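Further: spheroids exposed to agents for seven days before luminescence read.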
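Wherever viability, T/C is given: luminescent signal used as a stand-in for spheroid viability; percent viability relative to DMSO vehicle control wells taken as 100%.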

C[C@@H](NC(=O)c1ncnc(N)c1Cl)c1ncc(C(=O)Nc2cc(C(F)(F)F)c(Cl)cn2)s1 + CC(Nc1ncnc2nc[nH]c12)c1cc2cccc(Cl)c2c(=O)n1-c1ccccc1
IC50 (second compound 0.0316 µM): > 10 µM | IC50 (second compound 0.1 µM): > 10 µM | IC50 (second compound 0.316 µM): > 10 µM | IC50 (second compound 1 µM): > 10 µM | IC50 (second compound 3.16 µM): > 10 µM | IC50 (second compound 10 µM): > 10 µM | viability, T/C [1]: 115% | viability, T/C [2]: 100% | viability, T/C [3]: 107% | viability, T/C [4]: 100% | viability, T/C [5]: 99.8% | viability, T/C [6]: 94.4% | viability, T/C [7]: 100% | viability, T/C [8]: 101% | viability, T/C [9]: 104% | viability, T/C [10]: 107% | viability, T/C [11]: 101% | viability, T/C [12]: 107% | viability, T/C [13]: 96.8% | viability, T/C [14]: 105% | viability, T/C [15]: 92.5% | viability, T/C [16]: 96.1% | viability, T/C [17]: 98.8% | viability, T/C [18]: 97.6% | viability, T/C [19]: 99.2% | viability, T/C [20]: 94.4% | viability, T/C [21]: 110% | viability, T/C [22]: 92.8% | viability, T/C [23]: 94.8% | viability, T/C [24]: 83% | viability, T/C [25]: 97.1% | viability, T/C [26]: 102% | viability, T/C [27]: 104% | viability, T/C [28]: 94.3% | viability, T/C [29]: 93.8% | viability, T/C [30]: 73.3% | viability, T/C [31]: 100% | viability, T/C [32]: 94.7% | viability, T/C [33]: 96.3% | viability, T/C [34]: 83% | viability, T/C [35]: 82.2% | viability, T/C [36]: 61%

CC(Cn1ccc(-c2ccc(C#N)c(Cl)c2)n1)NC(=O)c1cc(C(C)O)[nH]n1 (stereo unspecified) + CC(Nc1ccc2c(c1)OCCn1cc(N3C(=O)OCC3C(F)F)nc1-2)C(N)=O
IC50 (second compound 0.00316 µM): > 10 µM | IC50 (second compound 0.01 µM): > 10 µM | IC50 (second compound 0.0316 µM): > 10 µM | IC50 (second compound 0.1 µM): > 10 µM | IC50 (second compound 0.316 µM): > 10 µM | IC50 (second compound 1 µM): > 10 µM | viability, T/C (second compound 0.00316 µM, first compound 0.0316 µM): 98.3% | viability, T/C (second compound 0.00316 µM, first compound 0.1 µM): 98.6% | viability, T/C (second compound 0.00316 µM, first compound 0.316 µM): 94.7% | viability, T/C (second compound 0.00316 µM, first compound 1 µM): 92.7% | viability, T/C (second compound 0.00316 µM, first compound 3.16 µM): 94.6% | viability, T/C (second compound 0.00316 µM, first compound 10 µM): 103% | viability, T/C (second compound 0.01 µM, first compound 0.0316 µM): 93% | viability, T/C (second compound 0.01 µM, first compound 0.1 µM): 100% | viability, T/C (second compound 0.01 µM, first compound 0.316 µM): 115% | viability, T/C (second compound 0.01 µM, first compound 1 µM): 101% | viability, T/C (second compound 0.01 µM, first compound 3.16 µM): 103% | viability, T/C (second compound 0.01 µM, first compound 10 µM): 95.5% | viability, T/C [1]: 110% | viability, T/C [2]: 96.4% | viability, T/C [3]: 97.4% | viability, T/C [4]: 107% | viability, T/C [5]: 112% | viability, T/C [6]: 99% | viability, T/C [7]: 101% | viability, T/C [8]: 97.5% | viability, T/C [9]: 93.3% | viability, T/C [10]: 102% | viability, T/C [11]: 102% | viability, T/C [12]: 91% | viability, T/C [13]: 94.2% | viability, T/C [14]: 96% | viability, T/C [15]: 101% | viability, T/C [16]: 91.4% | viability, T/C [17]: 91.5% | viability, T/C [18]: 77.8% | viability, T/C [19]: 87.6% | viability, T/C [20]: 88.2% | viability, T/C [21]: 83.8% | viability, T/C [22]: 88.7% | viability, T/C [23]: 81.9% | viability, T/C [24]: 79.1%

C=CC(=O)N1CCN(c2nc(=O)n(-c3c(C)ccnc3C(C)C)c3nc(-c4c(O)cccc4F)c(F)cc23)C(C)C1 (stereo unspecified) + CC(Nc1ncnc2nc[nH]c12)c1cc2cccc(Cl)c2c(=O)n1-c1ccccc1
IC50 (second compound 0.0316 µM): > 10 µM | IC50 (second compound 0.1 µM): > 10 µM | IC50 (second compound 0.316 µM): > 10 µM | IC50 (second compound 1 µM): > 10 µM | IC50 (second compound 3.16 µM): > 10 µM | IC50 (second compound 10 µM): > 10 µM | viability, T/C [1]: 125% | viability, T/C [2]: 96.1% | viability, T/C [3]: 114% | viability, T/C [4]: 102% | viability, T/C [5]: 113% | viability, T/C [6]: 121% | viability, T/C [7]: 105% | viability, T/C [8]: 94.6% | viability, T/C [9]: 121% | viability, T/C [10]: 97.7% | viability, T/C [11]: 107% | viability, T/C [12]: 119% | viability, T/C [13]: 96.9% | viability, T/C [14]: 116% | viability, T/C [15]: 100% | viability, T/C [16]: 108% | viability, T/C [17]: 111% | viability, T/C [18]: 120% | viability, T/C [19]: 106% | viability, T/C [20]: 111% | viability, T/C [21]: 109% | viability, T/C [22]: 111% | viability, T/C [23]: 127% | viability, T/C [24]: 116% | viability, T/C [25]: 104% | viability, T/C [26]: 107% | viability, T/C [27]: 97.9% | viability, T/C [28]: 106% | viability, T/C [29]: 102% | viability, T/C [30]: 115% | viability, T/C [31]: 95.3% | viability, T/C [32]: 103% | viability, T/C [33]: 95.5% | viability, T/C [34]: 114% | viability, T/C [35]: 99.6% | viability, T/C [36]: 93.3%
